This is an account of results in the supplement of paper PMC11061612.

Assay [1] deals with NCI-H2731 (Mesothelioma). Put plainly: Bliss excess, mean over the matrix (fraction); higher = more synergy. The procedure, abridged:
(§1)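 Cell lines grown in DMEM/F12 or RPMI with 10% FBS were plated in 1536-well plates and held 24 hours at 37°C, 5% CO2 before 72 hours of exposure to two-drug dose matrices, with DMSO typically at 0.2%. CellTiter-Glo 2.0 luminescence gave viability, which was converted to inhibition. Vehicle wells were set to 0 and blank wells to 1. Combination Emax is the second-highest inhibition in the matrix, and Bliss excess is the observed combination effect minus the expected EA + EB − EA·EB, where EA and EB are the single-agent effects.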

Assay [2] relates to M059J (Glioblastoma). The assay is described as above. The procedure, abridged:
as §1

Assay [3] has as its system KYSE-270 (Esophageal Squamous Cell Carcinoma). The assay is described as above. The procedure, abridged: as §1
The subject of assay [4] is KP-3 (Pancreatic Carcinoma). The assay is described as above. The procedure, abridged: as §1
The test system of assay [5] is MOG-G-CCM (Low Grade Glioma). Described as above. The procedure, abridged: as §1
For assay [6], the system named is NCCIT (Other Solid Carcinomas). The assay is described as above. The procedure, abridged: as §1
The subject of assay [7] is CW-2 (Colorectal Carcinoma). The assay is described as above. The procedure, abridged: as §1
For assay [8], the system named is NCI-H526 (Small Cell Lung Carcinoma). Described as above. Put shortly: as §1
For assay [9], the system named is VMRC-RCZ (Kidney Carcinoma). Described as above. The procedure, abridged: as §1
The subject of assay [10] is DMS-114 (Small Cell Lung Carcinoma). The description is as above. The procedure, abridged: as §1
The subject of assay [11] is NCI-H929 (Plasma Cell Myeloma). Described as above. Put shortly:
as §1

For assay [12], the system named is MN-60 (B-Lymphoblastic Leukemia). The description is as above. The procedure, abridged:
as §1

In assay [13] the test system is KU812 (Chronic Myelogenous Leukemia). Described as above. Put shortly:
as §1

In assay [14] the test system is OCI-AML3 (Acute Myeloid Leukemia). The description is as above. Put shortly: as §1
For assay [15], the system named is SK-GT-4 (Esophageal Adenocarcinoma). Described as above. The procedure, abridged: as §1
In assay [16] the test system is NCI-H520 (Squamous Cell Lung Carcinoma). The description is as above. Put shortly: as §1
In assay [17] the test system is NCI-H3122 (Lung Adenocarcinoma). Described as above. The procedure, abridged:
as §1

Assay [18] deals with SJSA-1 (Osteosarcoma). The assay is described as above. Put shortly: as §1
Assay [19] concerns T-T (Esophageal Squamous Cell Carcinoma). The description is as above. The procedure, abridged: as §1
For assay [20], the system named is NCI-H2731 (Mesothelioma). In words: combination Emax (second highest fraction inhibited in the dose matrix, 72 h); higher = more inhibition; extreme values may be limits of the assay. Put shortly: as §1
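For Bliss excess, mean over the matrix in this document: after 72 h of two-drug dosing.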

Take `CN(CCO)CC[C@H](CSc1ccccc1)Nc1ccc(S(=O)(=O)NC(=O)c2ccc(N3CCC([C@@H](O)c4ccccc4-c4ccc(Cl)cc4)CC3)cc2)cc1S(=O)(=O)C(F)(F)F` [AZD4320] + CS(=O)(=O)CCNCc1ccc(-c2ccc3ncnc(Nc4ccc(OCc5cccc(F)c5)c(Cl)c4)c3c2)o1 [Lapatinib] (first compound max 1 µM, 7x7, partner max 10 µM): the Bliss excess was -0.0076 in assay [1]; 0.0681 in assay [2]; -0.0254 in [3]; -0.0588 in assay [4]; -0.0278 in [5]; 0.0212 in assay [6]. Moreover, the Bliss excess in assay [7] is -0.0322; in assay [8], 0.0898; in assay [9], -0.0072; in [10] it was 0.0146; in [11], 0.0248; in [12], -0.0716. Also, the Bliss excess in [13] is 0.0801; in assay [14], 0.0258; in assay [15], 0.0451; in [16] it was -0.0382; in assay [17], 0.0006; in [18] it was -0.085. Besides, the Bliss excess in [19] is -0.0055. Further, the “combination Emax” value in [20] came out at 0.858.
